For eight molecules, IC50 and EC50 results are on record in ChEMBL document CHEMBL3997770, “An overview of the binding models of FGFR tyrosine kinases in complex with small molecule inhibitors” (Eur J Med Chem, 2017).

The target in assay [1] is T1, Fibroblast growth factor receptor 2 (Homo sapiens, UniProt P21802). Description: Inhibition of recombinant His6-tagged FGFR2 (unknown origin) expressed in Escherichia coli BL21(DE3)-RILP using peptidic substrate by ELISA. (ELISA stands for enzyme-linked immunosorbent assay.)
T1 sequence (P21802 whole entry): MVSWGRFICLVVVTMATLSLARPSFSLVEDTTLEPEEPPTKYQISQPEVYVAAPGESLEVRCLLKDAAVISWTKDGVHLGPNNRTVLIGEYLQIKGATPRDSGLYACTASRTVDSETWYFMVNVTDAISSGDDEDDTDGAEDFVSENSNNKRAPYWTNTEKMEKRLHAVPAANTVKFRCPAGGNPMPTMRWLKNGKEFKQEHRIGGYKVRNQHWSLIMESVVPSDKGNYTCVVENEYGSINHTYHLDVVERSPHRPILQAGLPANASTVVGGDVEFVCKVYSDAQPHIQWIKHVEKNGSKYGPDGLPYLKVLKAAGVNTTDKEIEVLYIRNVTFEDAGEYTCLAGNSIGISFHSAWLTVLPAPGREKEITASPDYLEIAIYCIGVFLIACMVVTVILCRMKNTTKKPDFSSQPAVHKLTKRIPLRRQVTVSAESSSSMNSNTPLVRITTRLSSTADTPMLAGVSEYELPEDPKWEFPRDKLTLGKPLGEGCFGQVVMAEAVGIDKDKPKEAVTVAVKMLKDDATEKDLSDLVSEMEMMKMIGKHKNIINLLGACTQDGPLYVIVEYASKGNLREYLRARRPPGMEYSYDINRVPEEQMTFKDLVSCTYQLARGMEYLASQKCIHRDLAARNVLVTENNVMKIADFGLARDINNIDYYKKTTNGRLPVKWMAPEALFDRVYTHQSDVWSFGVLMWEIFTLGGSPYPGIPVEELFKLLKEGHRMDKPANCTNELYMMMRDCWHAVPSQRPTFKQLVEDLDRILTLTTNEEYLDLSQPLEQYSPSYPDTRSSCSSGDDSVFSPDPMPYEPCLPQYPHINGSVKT
In assay [2] the target is T2, Fibroblast growth factor receptor 1 (Homo sapiens, UniProt P11362). Description: Inhibition of recombinant His6-tagged FGFR1 (unknown origin) expressed in Escherichia coli BL21(DE3)-RILP using peptidic substrate by ELISA.
T2 sequence (P11362 whole entry): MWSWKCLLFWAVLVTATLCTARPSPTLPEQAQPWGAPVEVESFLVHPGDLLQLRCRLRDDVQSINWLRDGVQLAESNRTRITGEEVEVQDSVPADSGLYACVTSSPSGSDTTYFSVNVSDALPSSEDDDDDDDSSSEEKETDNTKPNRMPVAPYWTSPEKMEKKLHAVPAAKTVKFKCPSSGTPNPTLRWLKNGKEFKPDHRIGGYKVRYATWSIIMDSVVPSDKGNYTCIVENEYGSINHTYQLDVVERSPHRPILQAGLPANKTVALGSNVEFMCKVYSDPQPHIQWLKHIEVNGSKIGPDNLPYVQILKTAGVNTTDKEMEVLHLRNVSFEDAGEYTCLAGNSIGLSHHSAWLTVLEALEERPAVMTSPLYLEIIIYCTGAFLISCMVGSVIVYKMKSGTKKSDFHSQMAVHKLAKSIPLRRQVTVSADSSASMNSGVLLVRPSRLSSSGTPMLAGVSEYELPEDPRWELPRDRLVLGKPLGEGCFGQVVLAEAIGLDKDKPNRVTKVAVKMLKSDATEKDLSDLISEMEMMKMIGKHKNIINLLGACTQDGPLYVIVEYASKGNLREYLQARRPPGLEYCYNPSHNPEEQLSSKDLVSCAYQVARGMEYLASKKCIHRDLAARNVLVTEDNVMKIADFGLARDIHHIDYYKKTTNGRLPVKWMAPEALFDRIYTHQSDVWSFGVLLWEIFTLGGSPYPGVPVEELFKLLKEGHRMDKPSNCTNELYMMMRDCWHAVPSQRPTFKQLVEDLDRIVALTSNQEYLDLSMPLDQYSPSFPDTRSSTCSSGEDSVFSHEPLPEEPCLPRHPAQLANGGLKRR
In assay [3] the target is Fibroblast growth factor receptor 1 (Mus musculus, UniProt P16092). Description: Inhibition of FGF induced FGFR1 autophosphorylation in mouse NIH 3T3 cells preincubated for 5 mins followed by FGF-stimulation for 5 mins in presence of [gamma-32P]ATP by SDS-PAGE based autoradiography. The class given is cell-based.
Fibroblast growth factor receptor 1 (Mus musculus, UniProt P16092), sequence (P16092 whole entry, the tested form may be a part): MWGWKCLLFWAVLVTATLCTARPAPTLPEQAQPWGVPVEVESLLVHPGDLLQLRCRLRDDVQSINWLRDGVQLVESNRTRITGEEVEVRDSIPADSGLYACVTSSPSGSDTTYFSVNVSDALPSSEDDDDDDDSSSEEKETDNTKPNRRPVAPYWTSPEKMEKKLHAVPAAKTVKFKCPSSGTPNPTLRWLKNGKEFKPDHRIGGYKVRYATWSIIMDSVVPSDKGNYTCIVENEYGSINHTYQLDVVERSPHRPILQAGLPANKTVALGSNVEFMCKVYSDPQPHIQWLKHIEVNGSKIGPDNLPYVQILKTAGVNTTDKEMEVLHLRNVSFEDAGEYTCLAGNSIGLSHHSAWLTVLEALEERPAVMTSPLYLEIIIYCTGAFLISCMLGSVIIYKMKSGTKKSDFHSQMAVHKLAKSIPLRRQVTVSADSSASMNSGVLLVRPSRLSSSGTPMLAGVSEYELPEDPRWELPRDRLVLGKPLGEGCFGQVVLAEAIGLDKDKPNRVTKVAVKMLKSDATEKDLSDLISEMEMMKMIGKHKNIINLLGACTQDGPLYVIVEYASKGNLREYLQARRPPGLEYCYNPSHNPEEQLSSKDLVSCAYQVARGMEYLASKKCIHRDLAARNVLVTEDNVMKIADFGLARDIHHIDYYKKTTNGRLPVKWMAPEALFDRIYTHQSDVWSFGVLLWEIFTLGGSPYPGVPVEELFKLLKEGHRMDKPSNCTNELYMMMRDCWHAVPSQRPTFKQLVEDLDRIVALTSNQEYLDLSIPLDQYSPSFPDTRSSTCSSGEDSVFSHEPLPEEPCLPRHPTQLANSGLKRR
Assay [4] has as its target T2, Fibroblast growth factor receptor 1. Description: Inhibition of FGFR1 kinase domain (unknown origin).
In the next assay the test system is SNU-16. In words: cells. As to conditions: Homo sapiens, SNU-16, 72 h.
For assay [5], the target named is T1, Fibroblast growth factor receptor 2. Description: Inhibition of FGFR2 (unknown origin).
Assay [6] addresses Fibroblast growth factor receptor 2 (Homo sapiens, UniProt P21802, V564M). In words: Inhibition of FGFR2 V564M mutant (unknown origin).
Assay [7] concerns the target T2, Fibroblast growth factor receptor 1. Description: Inhibition of FGFR1 (unknown origin).
Assay [8] concerns the target Fibroblast growth factor receptor 3 (Homo sapiens, UniProt P22607). In words: Inhibition of FGFR3 (unknown origin).
The target of assay [9] is T3, Fibroblast growth factor receptor 4 (Homo sapiens, UniProt P22455). In words: Inhibition of FGFR4 (unknown origin).
T3 sequence (P22455 whole entry): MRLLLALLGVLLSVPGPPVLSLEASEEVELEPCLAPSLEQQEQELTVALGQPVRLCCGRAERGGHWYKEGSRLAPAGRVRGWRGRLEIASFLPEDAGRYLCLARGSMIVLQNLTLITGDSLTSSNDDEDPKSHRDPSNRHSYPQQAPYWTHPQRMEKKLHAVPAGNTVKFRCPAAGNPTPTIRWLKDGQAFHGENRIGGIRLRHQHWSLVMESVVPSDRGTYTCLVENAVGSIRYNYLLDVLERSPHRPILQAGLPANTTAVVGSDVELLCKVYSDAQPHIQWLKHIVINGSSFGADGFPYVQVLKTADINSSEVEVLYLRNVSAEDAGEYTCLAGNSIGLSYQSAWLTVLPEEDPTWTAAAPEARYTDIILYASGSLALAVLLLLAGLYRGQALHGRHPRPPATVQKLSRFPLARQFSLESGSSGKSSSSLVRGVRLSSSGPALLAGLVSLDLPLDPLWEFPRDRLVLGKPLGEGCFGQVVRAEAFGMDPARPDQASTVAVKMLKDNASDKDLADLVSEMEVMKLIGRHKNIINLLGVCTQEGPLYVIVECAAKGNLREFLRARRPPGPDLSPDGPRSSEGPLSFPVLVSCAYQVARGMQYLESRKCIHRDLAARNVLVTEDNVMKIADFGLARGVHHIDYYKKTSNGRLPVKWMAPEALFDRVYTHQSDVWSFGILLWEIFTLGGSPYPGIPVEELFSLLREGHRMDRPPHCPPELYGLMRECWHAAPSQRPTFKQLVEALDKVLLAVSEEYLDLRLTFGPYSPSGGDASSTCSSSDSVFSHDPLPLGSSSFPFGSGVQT
For assay [10], the target named is Epidermal growth factor receptor (Homo sapiens, UniProt P00533, L858R). Description: Inhibition of EGFR L858R mutant (unknown origin).
Assay [11] addresses T3, Fibroblast growth factor receptor 4. In words: Inhibition of human N-terminal GST-tagged FGFR4 cytoplasmic domain (460 to 802 end residues) expressed in baculovirus expression system using CSKtide as substrate after 90 mins.

In general, pIC50 refers to the IC50 on a negative log10 scale, so that one unit is a factor of ten. The term pEC50 denotes the negative decadic logarithm of the EC50, by convention in mol/L.

pEC50, pIC50: −log10 of the molar value. Bounds are passed on as bounds.

Fibroblast growth factor receptor 2 (Homo sapiens, UniProt P21802, V564M), sequence (P21802 22-821 V564M limits assumed): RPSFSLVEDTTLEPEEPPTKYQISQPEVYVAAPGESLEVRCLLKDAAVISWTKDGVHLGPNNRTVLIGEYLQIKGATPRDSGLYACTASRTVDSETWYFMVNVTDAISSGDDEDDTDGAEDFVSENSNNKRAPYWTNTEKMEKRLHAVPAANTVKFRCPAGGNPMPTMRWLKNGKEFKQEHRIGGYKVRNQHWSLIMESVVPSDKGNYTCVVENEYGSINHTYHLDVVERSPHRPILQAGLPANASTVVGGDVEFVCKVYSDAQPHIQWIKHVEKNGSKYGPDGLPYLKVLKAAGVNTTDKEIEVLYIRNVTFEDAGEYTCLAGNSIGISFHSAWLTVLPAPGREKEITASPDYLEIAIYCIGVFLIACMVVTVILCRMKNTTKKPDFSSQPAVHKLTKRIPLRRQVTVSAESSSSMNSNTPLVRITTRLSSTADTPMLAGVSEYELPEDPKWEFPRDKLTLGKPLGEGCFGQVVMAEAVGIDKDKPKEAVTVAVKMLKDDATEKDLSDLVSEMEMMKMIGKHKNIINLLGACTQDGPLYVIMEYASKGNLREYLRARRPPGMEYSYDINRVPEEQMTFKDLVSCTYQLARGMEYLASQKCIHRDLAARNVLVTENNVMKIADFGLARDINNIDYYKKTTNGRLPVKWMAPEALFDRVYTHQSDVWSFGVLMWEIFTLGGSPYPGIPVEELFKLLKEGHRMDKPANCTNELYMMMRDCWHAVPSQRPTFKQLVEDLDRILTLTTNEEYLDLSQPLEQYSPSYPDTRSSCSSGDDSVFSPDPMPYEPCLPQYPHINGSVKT
Fibroblast growth factor receptor 3, sequence (P22607 whole entry): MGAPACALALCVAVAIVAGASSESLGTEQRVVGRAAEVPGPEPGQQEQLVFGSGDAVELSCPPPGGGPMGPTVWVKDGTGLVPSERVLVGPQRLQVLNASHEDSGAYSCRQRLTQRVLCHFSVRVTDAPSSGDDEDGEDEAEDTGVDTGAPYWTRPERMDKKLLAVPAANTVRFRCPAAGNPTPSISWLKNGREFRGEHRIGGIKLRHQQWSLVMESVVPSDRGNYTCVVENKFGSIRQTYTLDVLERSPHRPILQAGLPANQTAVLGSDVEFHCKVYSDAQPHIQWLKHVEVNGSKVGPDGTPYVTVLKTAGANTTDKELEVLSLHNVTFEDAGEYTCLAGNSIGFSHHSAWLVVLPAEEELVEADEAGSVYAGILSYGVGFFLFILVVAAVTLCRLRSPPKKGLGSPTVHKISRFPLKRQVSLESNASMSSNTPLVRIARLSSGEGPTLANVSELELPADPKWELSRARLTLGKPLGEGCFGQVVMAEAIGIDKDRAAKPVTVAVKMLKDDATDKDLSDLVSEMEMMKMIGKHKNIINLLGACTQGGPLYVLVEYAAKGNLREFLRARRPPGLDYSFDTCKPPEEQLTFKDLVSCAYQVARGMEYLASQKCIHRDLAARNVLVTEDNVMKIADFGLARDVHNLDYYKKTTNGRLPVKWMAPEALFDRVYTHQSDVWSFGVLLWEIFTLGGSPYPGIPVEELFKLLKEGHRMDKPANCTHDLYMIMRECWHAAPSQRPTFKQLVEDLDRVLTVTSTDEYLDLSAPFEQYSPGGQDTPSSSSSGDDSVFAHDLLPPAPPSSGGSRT

For the molecule `Nc1ncc2c(n1)-c1ccccc1[C@H](c1ccccc1)C2`, the pIC50 in assay [1] is 5.91; in assay [2] it was 6.08.

As to `O=CN1CCN(c2ccc(/C=C3\C(=O)Nc4ccccc43)cc2)CC1`, the pIC50 is 4.40 to 4.70 in assay [3] and 4.70 to 5.00 in assay [4].

In the case of `CCN1CCN(c2ccc(C(=O)Nc3n[nH]c4cc(-c5cccc(OC)c5)ccc34)cc2)CC1`, in the assay on SNU-16, the pIC50 was 6.19.

Regarding `C=CC(=O)Nc1ccc(CN2C(=O)N(c3cc(OC)cc(OC)c3)Cc3cnc(Nc4ccc(N5CCN(C)CC5)cc4)nc32)cc1`, the pIC50 in [5] was 8.40; in [6], 7.24; in assay [8], 7.03; in assay [9], 7.49. In assay [7], this molecule showed a pEC50 of 9.00.

In the assay with SNU-16, `CCN1CCN(c2ccc(C(=O)Nc3n[nH]c4cc(-c5cccc(OC)c5F)ccc34)cc2)CC1` gave a pIC50 of 7.39.

As for `C=CC(=O)Nc1ccc(CN(C(=O)Nc2c(Cl)c(OC)cc(OC)c2Cl)c2cc(Nc3ccc(N4CCN(C)CC4)cc3)ncn2)cc1`, the pIC50 in assay [5] is over 9.00; in [6] it was 7.19; in assay [8], 7.39; in assay [9], 7.66; in assay [10] it was 7.77. In addition, the pEC50 in assay [7] is 9.00.

Regarding `Cc1c[nH]c(/C=C2\C(=O)Nc3ccccc32)c1CCC(=O)O`, the pIC50 in assay [3] and in assay [4] was 4.70 to 5.00 in each case.

Turning to `C=CC(N)=O` [ACRYLAMIDE], in assay [11], the pIC50 was 6.03.
